This is an account of results in patent US8163935B2, “Fused heterocyclic compounds” (Takeda Pharmaceutical Company Limited, priority 2005, dated 2012).

As usually defined, the melting point is the temperature of the solid-liquid transition. Consider `CCCC(CCC)c1ccc(Cl)c2nc(Oc3c(C)cc(C)cc3C)n(C)c12` [Example 124, 4-Chloro-2-(mesityloxy)-1-methyl-7-(1-propylbutyl)-1H-benzimidazole], for which the melting point lay in the range of 165 to 167 °C.

On to `CCC(CC)c1ccc(Cl)c2nc(Oc3c(C)cc(Cl)cc3C)n(C)c12` [Example 125, 4-Chloro-2-(4-chloro-2,6-dimethylphenoxy)-7-(1-ethylpropyl)-1-methyl-1H-benzimidazole], for which the melting point was in the range of 168 to 169 °C.

`CCC(CC)c1ccc(Cl)c2nc(Oc3c(OC)cc(C)cc3OC)n(C)c12` [Example 126, 4-Chloro-2-(2,6-dimethoxy-4-methylphenoxy)-7-(1-ethylpropyl)-1-methyl-1H-benzimidazole] yielded a melting point of 161 to 162 °C.

For the molecule `CCCC(CCC)c1ccc(Cl)c2nc(Oc3ccc(Cl)cc3Cl)n(C)c12` [Example 127, 4-Chloro-2-(2,4-dichlorophenoxy)-1-methyl-7-(1-propylbutyl)-1H-benzimidazole], the melting point is 87 to 88 °C.

As to `CCCC(CCC)c1ccc(Cl)c2nc(Oc3ccc(Br)cc3Cl)n(C)c12` [Example 128, 2-(4-Bromo-2-chlorophenoxy)-4-chloro-1-methyl-7-(1-propylbutyl)-1H-benzimidazole], the melting point was in the range of 97 to 99 °C.

As to `CCCC(CCC)c1ccc(Cl)c2nc(Oc3c(C)cc(Cl)cc3Cl)n(C)c12` [Example 129, 4-Chloro-2-(2,4-dichloro-6-methylphenoxy)-1-methyl-7-(1-propylbutyl)-1H-benzimidazole], the melting point was 148 to 150 °C.

As for `CCCC(CCC)c1ccc(Cl)c2nc(Oc3c(C)cc(Cl)cc3C)n(C)c12` [Example 130, 4-Chloro-2-(4-chloro-2,6-dimethylphenoxy)-1-methyl-7-(1-propylbutyl)-1H-benzimidazole], the melting point was in the range of 160 to 162 °C.

The molecule `CCCC(CCC)c1ccc(Cl)c2nc(Oc3c(C)cc(Br)cc3C)n(C)c12` [Example 131, 2-(4-Bromo-2,6-dimethylphenoxy)-4-chloro-1-methyl-7-(1-propylbutyl)-1H-benzimidazole] yielded a melting point of 155 to 157 °C.

`CCCC(CCC)c1ccc(Cl)c2nc(Oc3c(Cl)cc(Cl)cc3Cl)n(C)c12` [Example 132, 4-Chloro-1-methyl-7-(1-propylbutyl)-2-(2,4,6-trichlorophenoxy)-1H-benzimidazole] showed a melting point of 148 to 150 °C.

For the molecule `CCCC(CCC)c1ccc(Cl)c2nc(Oc3c(OC)cc(C)cc3OC)n(C)c12` [Example 133, 4-Chloro-2-(2,6-dimethoxy-4-methylphenoxy)-1-methyl-7-(1-propylbutyl)-1H-benzimidazole], the melting point was in the range of 203 to 205 °C.

The molecule `CCCC(CCC)c1ccc(Cl)c2nc(Oc3ccc4c5c3CCN5C(=O)CC4)n(C)c12` [Example 134, 9-{[4-Chloro-1-methyl-7-(1-propylbutyl)-1H-benzimidazol-2-yl]oxy}-1,2,5,6-tetrahydro-4H-pyrrolo[3,2,1-ij]quinolin-4-one] gave a melting point of 150 to 152 °C.

On to `CCC(CC)c1ccc(Cl)c2nc(Oc3ccc(Cl)cc3Br)n(C)c12` [Example 135, 2-(2-Bromo-4-chlorophenoxy)-4-chloro-7-(1-ethylpropyl)-1-methyl-1H-benzimidazole], for which the melting point was in the range of 114 to 115 °C.

For the molecule `CCC(CC)c1cc(Br)cc2nc(Oc3c(C)cc(Cl)cc3C)n(C)c12` [Example 136, 5-Bromo-2-(4-chloro-2,6-dimethylphenoxy)-7-(1-ethylpropyl)-1-methyl-1H-benzimidazole], the melting point is 214 to 216 °C.

In the case of `CCC(CC)c1ccc(Cl)c2nc(Oc3c(C)cc(Br)cc3C)n(C)c12` [Example 137, 2-(4-Bromo-2,6-dimethylphenoxy)-4-chloro-7-(1-ethylpropyl)-1-methyl-1H-benzimidazole], the melting point is 197 to 198 °C.

Molecule `CCC(CC)c1ccc(Cl)c2nc(Oc3c(Cl)cc(Cl)cc3Cl)n(C)c12` [Example 138, 4-Chloro-7-(1-ethylpropyl)-1-methyl-2-(2,4,6-trichlorophenoxy)-1H-benzimidazole] returned a melting point of 155 to 157 °C.

On to `CCC(CC)c1ccc(Cl)c2nc(Oc3c(OC)cc(C)nc3C)n(C)c12` [Example 139, 4-Chloro-7-(1-ethylpropyl)-2-[(4-methoxy-2,6-dimethylpyridin-3-yl)oxy]-1-methyl-1H-benzimidazole], for which the melting point fell in the range of 183 to 184 °C.

For the molecule `CCC(CC)c1ccc(Cl)c2nc(Oc3c(Cl)cc(OC(F)(F)F)cc3Cl)n(C)c12` [Example 140, 4-Chloro-2-[2,6-dichloro-4-(trifluoromethoxy)phenoxy]-7-(1-ethylpropyl)-1-methyl-1H-benzimidazole], the melting point was 145 to 147 °C.

`CCC(CC)c1ccc(Cl)c2nc(Oc3c(N(C)C)cc(C)nc3C)n(C)c12` [Example 141, 3-{[4-Chloro-7-(1-ethylpropyl)-1-methyl-1H-benzimidazol-2-yl]oxy}-N,N,2,6-tetramethylpyridin-4-amine] returned a melting point of 175 to 177 °C.

`CCC(CC)c1ccc(Cl)c2nc(Oc3c(Cl)cc(N(C)C)cc3Cl)n(C)c12` [Example 142, 3,5-Dichloro-4-{[4-chloro-7-(1-ethylpropyl)-1-methyl-1H-benzimidazol-2-yl]oxy}-N,N-dimethylaniline] returned a melting point of 200 to 202 °C.

For the molecule `CCC(CC)c1ccc(Cl)c2nc(Oc3c(Cl)cc(Cl)cc3C(=O)N(C)C)n(C)c12` [Example 143, 3,5-Dichloro-2-{[4-chloro-7-(1-ethylpropyl)-1-methyl-1H-benzimidazol-2-yl]oxy}-N,N-dimethylbenzamide], the melting point is 141 to 143 °C.

`CCC(CC)c1ccc(Cl)c2nc(Oc3c(C)cc(Cl)cc3OC)n(C)c12` [Example 144, 4-Chloro-2-(4-chloro-2-methoxy-6-methylphenoxy)-7-(1-ethyl-1-propyl)-1-methyl-1H-benzimidazole] returned a melting point of 165 to 167 °C.

For `CCC(CC)c1ccc(OC)c2nc(Oc3ccc(Cl)cc3Br)n(C)c12` [Example 146, 2-(2-Bromo-4-chlorophenoxy)-7-(1-ethylpropyl)-4-methoxy-1-methyl-1H-benzimidazole], the melting point was 106 to 107 °C.

`CCC(CC)c1ccc(O)c2nc(Oc3ccc(Cl)cc3Br)n(C)c12` [Example 147, 2-(2-Bromo-4-chlorophenoxy)-7-(1-ethylpropyl)-1-methyl-1H-benzimidazol-4-ol] showed a melting point of 175 to 177 °C.

Consider `CCC(CC)c1ccc(-c2ccco2)c2nc(Oc3ccc(Cl)cc3Br)n(C)c12` [Example 149, 2-(2-Bromo-4-chlorophenoxy)-7-(1-ethylpropyl)-4-(2-furyl)-1-methyl-1H-benzimidazole], for which the melting point was 159 to 162 °C.

Molecule `CCC(CC)c1ccc(C#N)c2nc(Oc3ccc(Cl)cc3Br)n(C)c12` [Example 150, 2-(2-Bromo-4-chlorophenoxy)-7-(1-ethylpropyl)-1-methyl-1H-benzimidazole-4-carbonitrile] came in with a melting point of 136 to 137 °C.

Turning to `CCC(CC)c1ccc(C#N)c2nc(Oc3c(C)cc(Cl)cc3Cl)n(C)c12` [Example 151, 2-(2,4-Dichloro-6-methylphenoxy)-7-(1-ethylpropyl)-1-methyl-1H-benzimidazole-4-carbonitrile], the melting point turned out to be 192 °C.

As for `CCC(CC)c1ccc(C#N)c2nc(Nc3c(C)cc(Cl)cc3OC)n(C)c12` [Example 152, 2-[(4-Chloro-2-methoxy-6-methylphenyl)amino]-7-(1-ethylpropyl)-1-methyl-1H-benzimidazole-4-carbonitrile], the melting point fell in the range of 223 to 225 °C.

`CCC(CC)c1ccc(C(=O)OC)c2nc(Oc3c(C)cc(Cl)cc3Cl)n(C)c12` [Example 153, Methyl 2-(2,4-dichloro-6-methylphenoxy)-7-(1-ethylpropyl)-1-methyl-1H-benzimidazole-4-carboxylate]: the melting point fell in the range of 177 to 178 °C.

Turning to `CCC(CC)c1ccc(CO)c2nc(Oc3c(C)cc(Cl)cc3Cl)n(C)c12` [Example 154, [2-(2,4-Dichloro-6-methylphenoxy)-7-(1-ethylpropyl)-1-methyl-1H-benzimidazol-4-yl]methanol], the melting point lay in the range of 141 to 143 °C.

As to `CCC(CC)c1ccc(CN2CCCC2)c2nc(Oc3c(C)cc(Cl)cc3Cl)n(C)c12` [Example 156, 2-(2,4-Dichloro-6-methylphenoxy)-7-(1-ethylpropyl)-1-methyl-4-(pyrrolidin-1-ylmethyl)-1H-benzimidazole], the melting point fell in the range of 107 to 108 °C.

On to `CCC(CC)c1ccc(C(F)(F)F)c2nc(Nc3c(C)cc(Cl)cc3OC)n(C)c12` [Example 158, N-(4-Chloro-2-methoxy-6-methylphenyl)-7-(1-ethylpropyl)-1-methyl-4-(trifluoromethyl)-1H-benzimidazol-2-amine], for which the melting point fell in the range of 187 to 188 °C.

Take `CCC(CC)c1ccc(C(F)(F)F)c2nc(Nc3ccc(Cl)cc3Br)n(C)c12` [Example 159, N-(2-Bromo-4-chlorophenyl)-7-(1-ethylpropyl)-1-methyl-4-(trifluoromethyl)-1H-benzimidazol-2-amine]: the melting point lay in the range of 151 to 152 °C.

`CCC(CC)c1ccc(C(F)(F)F)c2nc(Oc3c(C)cc(Cl)cc3Cl)n(C)c12` [Example 160, 2-(2,4-Dichloro-6-methylphenoxy)-7-(1-ethylpropyl)-1-methyl-4-(trifluoromethyl)-1H-benzimidazole] had a melting point of 149 to 151 °C.

Consider `CCC(CC)c1ccc(C(F)(F)F)c2nc(Oc3ccc(Cl)cc3Br)n(C)c12` [Example 161, 2-(2-Bromo-4-chlorophenoxy)-7-(1-ethylpropyl)-1-methyl-4-(trifluoromethyl)-1H-benzimidazole], for which the melting point lay within 119 to 120 °C.

For `CCc1cc(CC)n(-c2cccc3nc(Oc4c(C)cc(Cl)cc4Cl)n(C)c23)n1` [Example 162, 2-(2,4-Dichloro-6-methylphenoxy)-7-(3,5-diethyl-1H-pyrazol-1-yl)-1-methyl-1H-benzimidazole], the melting point is 115 to 119 °C.
